# Reference: US11666640B2, “Glucose oxidase compositions as a neonate anticonvulsant” (PENN STATE RESEARCH FOUNDATION, priority 2018, dated 2023)
# “Also recorded” adds a separate entry of the source.
# What was measured:
# cultured neurons = assay: LIVE/DEAD viability assay, kainic acid (KA)-induced cell death model; assay type: cell-based, mouse; conditions: sodium salt
# Description: Epileptic activity may induce cell death both in epileptic patients and animal models. Chen et al., “Differential roles of NR2A- and NR2B-containing NMDA receptors in activity-dependent brain-derived neurotrophic factor gene regulation and limbic epileptogenesis” The Journal Of Neuroscience: the official journal of the Society for Neuroscience 27:542-552 (2007); and Naseer et al., “Maternal epileptic seizure induced by pentylenetetrazol: apoptotic neurodegeneration and decreased GABAB1 receptor expression in prenatal rat brain” Molecular Brain 2:20 (2009). […] Wu et al., “Protective effect of resveratrol against kainate-induced temporal lobe epilepsy in rats” Neurochemical Research 34:1393-1400 (2009). In a control group, most neurons appeared to be healthy in morphology and were stained by calcein (green, live) but not ethidium homodimer-1 (EthD-1, red, death). See, FIG. 1J, left. […]
# A LIVE/DEAD® Viability/Cytotoxicity Assay Kit (L3224, Life Technologies) containing ethidium homodimer-1 and calcein-AM was used to examine cell viability. Ethidium homodimer-1 binds to cellular DNA and typically labels dead cells in red fluorescence, while Calcein-AM can be cleaved by esterases in live cells to give strong green fluorescence. […] Cell survival and death rate were measured by quantifying the percentage of green and red fluorescent cells, respectively. […]
# [1] = tested on: sodium, potassium or calcium channels; assay: Na+, K+ and Ca2+ currents in cultured cortical neurons; assay type: cell-based, mouse; conditions: 10 mM NaGcA; sodium salt
# Description: Experiments were designed to answer the question as to what is/are the molecular target(s) of gluconate. Ion channel regulation was first investigated where a comparison of NaGcA on sodium, potassium or calcium channels was made. […] See, FIGS. 2A-2F. Although it is not necessary to understand the mechanism of an invention, it is believed that since gluconic acid is an organic anion, it might affect neuronal anion channels.
# [2] = tested on: KA-induced epileptic burst activities; assay: KA-induced epileptic burst activity in adult mice, EEG recording; assay type: in vivo, mouse; conditions: KA 10 mg/kg i.p., NaGcA 2 g/kg i.p., sodium salt
# Experimental: (§1) To test the in vivo anti-epilepsy effects of gluconate in neonatal and adult rodents, P8-12 Sprague-Dawley rats or 2-month old male C57BL/6 mice were deeply anesthetized with pentobarbital sodium (50 mg/kg for neonatal rat and 100 mg/kg for adult mice, intraperitoneal injection). Two stainless steel screws (1 mm in diameter) were inserted in the skull above the cortex as EEG recording electrodes, one ground electrode as well as one reference electrode were located +1.8 mm anterior to bregma, ±0.5 mm lateral to the midline, and 1 mm below the cortical surface. All electrodes were attached to a micro-connector and fixed onto the skull with dental cement. After surgery, neonatal rats were returned to their mothers and allowed to recover for 2 days prior to subsequent EEG recording. The adult mice were single housed in order to prevent damage of the implanted electrodes and allowed to recover at least 5 days before EEG recording.
# [3] = tested on: PTZ-induced epileptic seizures; assay: PTZ-induced epileptiform activity in adult mice, EEG recording; assay type: in vivo, mouse; conditions: PTZ 50 mg/kg i.p.
# Experimental: as §1
# The baseline of EEG was recorded for 0.5-1 hr to allow the animal to adapt to the environment. Kainic acid (2 mg/kg) was administered intraperitoneally (i.p.) for neonatal epilepsy induction. D-gluconic acid sodium salt (2 g/kg) or 0.9% saline was injected i.p. 10 min after KA administration. […] Epileptiform activity was monitored for 1 hr after PTZ injection. […]
# Adult EEG signal were analyzed by spike 2 software (an analysis program for CED 1401, Cambridge, UK). […]
# [4] = tested on: GABAA-R reversal potential (EGABA); assay: Gramicidin-perforated whole-cell recording of GABAA-R reversal potential (EGABA) in CA3 pyramidal neurons; assay type: cell-based, mouse
# Experimental: To further test this idea, the GABAA-R reversal potential (EGABA), which governs GABA excitatory versus inhibitory function, was directly measured using gramicidin-perforated whole-cell recordings in neonatal mouse brain slices (e.g., P8-P9). As expected, epileptiform activity induced a large depolarizing shift in EGABA after treating hippocampal slices with 0 Mg^2+ aCSF for 1 h (aCSF: −59.2±2.0 mV, n=13; 0 Mg^2+: −48.2±1.1 mV, n=10). FIG. 16D. Treatment with bumetanide (Bum, 10 μM), a specific blocker for NKCC1 at low concentrations, induced a hyperpolarizing shift in EGABA (blue line) as compared to a control EGABA (dashed line). […]. […] Kaila et al., “Cation-chloride cotransporters in neuronal development, plasticity and disease” Nature Reviews. Neuroscience 15:637-654 (2014); Dzhala et al., “NKCC1 transporter facilitates seizures in the developing brain” Nature Medicine 11:1205-1213 (2005); and Loscher et al., “Cation-chloride cotransporters NKCC1 and KCC2 as potential targets for novel antiepileptic and antiepileptogenic treatments” Neuropharmacology 69:62-74 (2013). […] FIG. 16E, yellow line; Bum, −68.0±1.7 mV (n=9); 0 Mg^2++Bum, −50.2±1.4 mV (n=9); (p<0.002).
# GABAA-R current = GABAA-R current induced by isoguvacine before and after membrane depolarization (gramicidin-perforated recording); assay type: cell-based, mouse; conditions: isoguvacine 100 μM; depolarization 40 mV, 10 s; NaGcA 20 mM
# Experimental: To investigate the effect of such long-lasting epileptiform bursts on GABA function, gramicidin-perforated whole-cell recordings were performed to keep the intracellular Cl− intact in neonatal animals. GABAA receptor (GABAA-R) currents induced by the receptor agonist isoguvacine (100 μM, 50 ms) before and after a membrane-depolarizing shift (40 mV for 10 s) that mimics the epileptiform burst activity. […] FIGS. 16B and 16C.
smiles,measurement,setting,value
"O=C([O-])[C@H](O)[C@@H](O)[C@H](O)[C@H](O)CO.[Na+] [NaGcA, D-gluconic acid sodium salt]",KA-induced neuronal death,"cultured neurons; 10 μM KA for 24 hrs, co-application of 20 mM NaGcA",abolished; also recorded: neuron protection function
same,"neuron survival rate, NaGcA alone",cultured neurons; 20 mM NaGcA alone,no side effect; also recorded: without any side effect
same,"Na+, K+ and Ca2+ currents",[1],no significant changes; also recorded: no effect
same,KA-induced epileptic burst activities / EEG power in adult animals,[2]; listed as gluconate,less inhibition
same,KA-induced epileptic burst activities / EEG power in adult animals,[2],modest effect; also recorded: modestly inhibited
same,epileptic burst activity induced by PTZ,[3],did not suppress the epileptic burst activity as effective
same,latency of epileptiform spikes or bursts induced by PTZ,"[3]; NaGcA 1 and 2 g/kg, sodium salt",prolonging the latency; also recorded: prolonged
same,EGABA in 0 Mg2+ aCSF in CLC-3 KO mice,"[4]; CLC-3 KO mice, application of NaGcA",−56.6±2.4 mV
same,positive EGABA shift induced by 0 Mg2+ aCSF,[4]; neonatal CA3 neurons,completely abolishes
same,EGABA in 0 Mg2+ aCSF,"[4]; neonatal P8-P9, 0 Mg2+ aCSF, bumetanide 10 μM, VU0240551 10 μM, NaGcA 20 mM",−59.3±1.7 mV
same,EGABA in normal aCSF,"[4]; neonatal P8-P9, bumetanide 10 μM, VU0240551 10 μM, NaGcA 20 mM",−60.3±0.9 mV
same,depolarization-induced enhancement of GABAA-R current,GABAA-R current,strongly inhibited
